Measured values: the Kinase Knowledgebase extract (Sharma et al. 2016)

biological target: MAPK14;MAPK11;MAPK12 (human) (UniProt Q16539); assay: Inhibition of p38 Kinase Activity

Structure (SMILES)	IC50 [nM]
Cc1ccc(C(N)=O)cc1Nc1nc(N[C@H]2CCN(Cc3ccccc3C#N)C2)nc(N(C)CC(C)C)n1	< 1000
COCC(=O)N1CC2CC1CN2c1nc(NCC(C)c2ccccc2)nc(Nc2ccc3ncsc3c2)n1 (stereo unspecified)	< 10000
CONC(=O)c1ccc(C)c(Nc2nc(NCCCN3CCOCC3)nc(N(C)CC(C)(C)C)n2)c1	< 1000
Cc1ccc(C(N)=O)cc1Nc1nc(NCc2cccc3ccccc23)nc(N[C@@H]2CCNC2)n1	< 1000
CONC(=O)c1ccc(C)c(Nc2nc(N[C@H]3CCNC3)nc(N(C)CC(C)(C)C)n2)c1	< 1000
NC(=O)C1CCN(c2cc(Nc3ccc4ncsc4c3)nc(NC3CCC3)n2)CC1	< 10000
CNC(=O)c1ccc(C)c(Nc2nc(N[C@H]3CCN(Cc4ccccc4)C3)nc(N(C)CC(C)C)n2)c1	< 1000
Cc1ccc(C(N)=O)cc1Nc1nc(N[C@@H]2CCN(C(C)C(C)C)C2)nc(N(C)CC(C)(C)C)n1 (stereo partly specified)	< 1000
Cc1ccc(C(N)=O)cc1Nc1nc(NCC2CCNCC2)nc(NC(C)C2CCCCC2)n1 (stereo unspecified)	< 1000
CONC(=O)c1ccc(C)c(Nc2nc(N[C@H]3CCN(C(C)C)C3)nc(N(C)CC(C)(C)C)n2)c1	< 1000
Cc1ccc(C(N)=O)cc1Nc1nc(NC(C)C2CCCCC2)nc(N2CCNCC2)n1 (stereo unspecified)	< 1000
CCNC(=O)c1ccc(C)c(Nc2nc(N[C@H]3CCNC3)nc(N(C)CC(C)C)n2)c1	< 1000
CC(C)NC(=O)N(C)CCCN(C)c1nc(NCC(C)c2ccccc2)nc(Nc2ccc3ncsc3c2)n1 (stereo unspecified)	< 10000
Cc1ccc(C(N)=O)cc1Nc1nc(N[C@H]2CCN(c3ccccc3)C2)nc(N(C)CC(C)(C)C)n1	< 1000
Cc1ccc(C(N)=O)cc1Nc1nc(NCC2CCCC2)nc(N[C@H]2CCNC2)n1	< 1000
Cc1ccc(C(N)=O)cc1Nc1nc(N[C@H]2CCCNC2)nc(N(C)CC(C)C)n1	< 1000
CONC(=O)c1ccc(C)c(Nc2nc(NCCN3CCOCC3)nc(N(C)CC(C)(C)C)n2)c1	< 1000
CN(CCN(C)c1nc(NCc2ccc(F)cc2F)nc(-n2cnc3ccccc32)n1)C(=O)CCC(=O)O	< 10000

Structure (SMILES)	IC50 [nM]
NC(=O)c1ccc(N)c(Nc2nc(NC3CCNC3)nc(N3CCCC3)n2)c1 (stereo unspecified)	< 1000
Cc1ccc(C(N)=O)cc1Nc1nc(NCC(C)c2ccccc2)nc(N[C@H]2CCNC2)n1 (stereo partly specified)	< 1000
Cc1c(Nc2nc(NCC(C)c3ccccc3)nc(N3CCNCC3)n2)ccc2ncsc12 (stereo unspecified)	< 10000
CCC(CNc1nc(Cl)nc(Nc2ccc3ncsc3c2)n1)c1ccccc1 (stereo unspecified)	< 10000
CCCCNC(=O)c1ccc(C)c(Nc2nc(N[C@H]3CCNC3)nc(N(C)CC(C)(C)C)n2)c1	< 1000
Cc1ccc(C(N)=O)cc1Nc1nc(N[C@H]2CCN(Cc3ccc(Cl)c(Cl)c3)C2)nc(N(C)CC(C)C)n1	< 1000
Cc1ccc(C(N)=O)cc1Nc1nc(N[C@@H]2CCNC2)nc(N2CCCC(C(N)=O)C2)n1 (stereo partly specified)	< 1000
CNCCN(C)c1nc(NCc2ccc(F)cc2F)nc(Nc2ccc3ncsc3c2)n1	< 10000
Cc1ccc(C(N)=O)cc1Nc1nc(N[C@H]2CCNC2)nc(N(C)CC2CCCCC2)n1	< 1000
Cc1ccc(C(N)=O)cc1Nc1nc(N[C@H]2CCNC2)nc(N(C)C[C@@H]2CC[C@H]3C[C@H]2C3(C)C)n1	< 1000
COc1cccc(NC(=O)c2ccc(C)c(Nc3nc(N[C@H]4CCNC4)nc(N(C)CC(C)(C)C)n3)c2)c1	< 1000
Cc1ccc(C(N)=O)cc1Nc1nc(NC2CCN(Cc3ccccn3)C2)nc(N(C)CC(C)C)n1 (stereo unspecified)	< 1000
Cc1ccc(C(N)=O)cc1Nc1nc(N[C@H]2CCNC2)cc(N(C)CC(C)C)n1	< 1000
CC1(C)C2CCC(CNc3cc(Nc4ccc5ncsc5c4)nc(N4CCNCC4)n3)C1C2 (stereo unspecified)	< 10000
Cc1ccc(C(=O)NC(C)C)cc1Nc1nc(N[C@H]2CCNC2)nc(N(C)CC(C)C)n1	< 1000
c1nc2ccc(Nc3nc(CCC4CCCCC4)nc(N4CCNCC4)n3)cc2s1	< 10000
Cc1ccc(C(N)=O)cc1Nc1nc(NC2CCN(CCc3ccccc3)C2)nc(N(C)CC(C)C)n1 (stereo unspecified)	< 1000
Cc1ccc(C(N)=O)cc1Nc1nc(N[C@H]2CCCC[C@H]2NC(=O)CC(C)C)nc(N(C)CC(C)C)n1	< 1000
